ChEMBL document CHEMBL3885881, “DrugMatrix”

Organism: Rattus norvegicus
Test: DrugMatrix - Regimen: Daily Repeat
Format: toxicity, organism-based, Sprague-Dawley
Design: regimen Daily Repeat, gender Male, age 6-8 weeks
Conditions: in vivo, po, route oral GAVAGE, vehicle .5 % CMC; for ABSOLUTE BASOPHIL / ABSOLUTE EOSINOPHIL / ABSOLUTE LYMPHOCYTE / ABSOLUTE MONOCYTE / ABSOLUTE SEGMENTED NEUTROPHIL / BASOPHIL / EOSINOPHIL / ERYTHROCYTE COUNT / HEMATOCRIT / HEMOGLOBIN / LEUKOCYTE COUNT / LYMPHOCYTE / MEAN CORPUSCULAR HEMOGLOBIN / MEAN CORPUSCULAR HEMOGLOBIN CONCENTRATION / MEAN CORPUSCULAR VOLUME / MONOCYTE / NEUTROPHIL / NUCLEATED RED BLOOD CELLS / PLATELET COUNT: tissue Blood; for ALANINE AMINOTRANSFERASE / ALBUMIN / ALKALINE PHOSPHATASE / ASPARTATE AMINOTRANSFERASE / BLOOD UREA NITROGEN / CARBON DIOXIDE / CHLORIDE / CHOLESTEROL / CREATINE PHOSPHOKINASE / CREATININE / GLUCOSE / LACTATE DEHYDROGENASE / LIPASE / PHOSPHORUS / POTASSIUM / SODIUM / TOTAL BILIRUBIN / TOTAL PROTEIN / URIC ACID: tissue Plasma
[1] = 300 mg/kg, 72 h, dose level M1, time 3 day
[2] = 300 mg/kg, 120 h, dose level M1, time 5 day
[3] = 1100 mg/kg, 72 h, dose level High, time 3 day
[4] = 1100 mg/kg, 120 h, dose level High, time 5 day

## COc1ccc(/C=C/C(=O)Nc2ccccc2C(=O)O)cc1OC
[1]
  ABSOLUTE BASOPHIL: 0 CELLS/uL
  ABSOLUTE EOSINOPHIL: 0 CELLS/uL
  ABSOLUTE LYMPHOCYTE: 15435.67 CELLS/uL
  ABSOLUTE MONOCYTE: 65.33 CELLS/uL
  ABSOLUTE SEGMENTED NEUTROPHIL: 1499 CELLS/uL
  BASOPHIL: 0%
  EOSINOPHIL: 0%
  ERYTHROCYTE COUNT: 5.52 x10E6/uL
  HEMATOCRIT: 35.2%
  HEMOGLOBIN: 13.97 G/DL
  LEUKOCYTE COUNT: 17 x10E3/uL
  LYMPHOCYTE: 90.67%
  MEAN CORPUSCULAR HEMOGLOBIN: 25.3 pg
  MEAN CORPUSCULAR HEMOGLOBIN CONCENTRATION: 39.67 G/DL
  MEAN CORPUSCULAR VOLUME: 63.73 fL
  MONOCYTE: 0.33%
  NEUTROPHIL: 9%
  NUCLEATED RED BLOOD CELLS: 0 /100WBC
  PLATELET COUNT: 1287.67 x10E3/uL
  ALANINE AMINOTRANSFERASE: 54.67 u/L
  ALBUMIN: 4.27 G/DL
  ALKALINE PHOSPHATASE: 401.67 u/L
  ASPARTATE AMINOTRANSFERASE: 92.67 u/L
  BLOOD UREA NITROGEN: 14 mg/dL
  CARBON DIOXIDE: 24 mmol/L
  CHLORIDE: 103 MEQ/L
  CHOLESTEROL: 78.33 mg/dL
  CREATINE PHOSPHOKINASE: 294 u/L
  CREATININE: 0.15 mg/dL
  GLUCOSE: 150.67 mg/dL
  LACTATE DEHYDROGENASE: 445 u/L
  LIPASE: 9 u/L
  PHOSPHORUS: 13.6 mg/dL
  POTASSIUM: 6.91 MEQ/L
  SODIUM: 145.8 MEQ/L
  TOTAL BILIRUBIN: 0.17 mg/dL
  TOTAL PROTEIN: 6 G/DL
  URIC ACID: 1.4 mg/dL
[2]
  ABSOLUTE BASOPHIL: 0 CELLS/uL
  ABSOLUTE EOSINOPHIL: 240.33 CELLS/uL
  ABSOLUTE LYMPHOCYTE: 16960.67 CELLS/uL
  ABSOLUTE MONOCYTE: 310.67 CELLS/uL
  ABSOLUTE SEGMENTED NEUTROPHIL: 988.33 CELLS/uL
  BASOPHIL: 0%
  EOSINOPHIL: 1.33%
  ERYTHROCYTE COUNT: 5.25 x10E6/uL
  HEMATOCRIT: 33.97%
  HEMOGLOBIN: 13.6 G/DL
  LEUKOCYTE COUNT: 18.5 x10E3/uL
  LYMPHOCYTE: 91.67%
  MEAN CORPUSCULAR HEMOGLOBIN: 25.93 pg
  MEAN CORPUSCULAR HEMOGLOBIN CONCENTRATION: 40.07 G/DL
  MEAN CORPUSCULAR VOLUME: 64.73 fL
  MONOCYTE: 1.67%
  NEUTROPHIL: 5.33%
  NUCLEATED RED BLOOD CELLS: 0 /100WBC
  PLATELET COUNT: 1233.33 x10E3/uL
  ALANINE AMINOTRANSFERASE: 54.33 u/L
  ALBUMIN: 4.33 G/DL
  ALKALINE PHOSPHATASE: 383 u/L
  ASPARTATE AMINOTRANSFERASE: 84.33 u/L
  BLOOD UREA NITROGEN: 18 mg/dL
  CARBON DIOXIDE: 21 mmol/L
  CHLORIDE: 105 MEQ/L
  CHOLESTEROL: 63 mg/dL
  CREATINE PHOSPHOKINASE: 256.33 u/L
  CREATININE: 0.21 mg/dL
  GLUCOSE: 156.33 mg/dL
  LACTATE DEHYDROGENASE: 285 u/L
  LIPASE: 8 u/L
  PHOSPHORUS: 11.8 mg/dL
  POTASSIUM: 6.72 MEQ/L
  SODIUM: 146.17 MEQ/L
  TOTAL BILIRUBIN: 0.2 mg/dL
  TOTAL PROTEIN: 5.93 G/DL
  URIC ACID: 1.3 mg/dL
[3]
  ABSOLUTE BASOPHIL: 0 CELLS/uL
  ABSOLUTE EOSINOPHIL: 138 CELLS/uL
  ABSOLUTE LYMPHOCYTE: 17593 CELLS/uL
  ABSOLUTE MONOCYTE: 218.33 CELLS/uL
  ABSOLUTE SEGMENTED NEUTROPHIL: 4950.67 CELLS/uL
  BASOPHIL: 0%
  EOSINOPHIL: 0.67%
  ERYTHROCYTE COUNT: 5.25 x10E6/uL
  HEMATOCRIT: 33.23%
  HEMOGLOBIN: 12.93 G/DL
  LEUKOCYTE COUNT: 22.9 x10E3/uL
  LYMPHOCYTE: 77%
  MEAN CORPUSCULAR HEMOGLOBIN: 24.77 pg
  MEAN CORPUSCULAR HEMOGLOBIN CONCENTRATION: 38.97 G/DL
  MEAN CORPUSCULAR VOLUME: 63.5 fL
  MONOCYTE: 1%
  NEUTROPHIL: 21.33%
  NUCLEATED RED BLOOD CELLS: 0 /100WBC
  PLATELET COUNT: 1488 x10E3/uL
  ALANINE AMINOTRANSFERASE: 95 u/L
  ALBUMIN: 4.4 G/DL
  ALKALINE PHOSPHATASE: 368 u/L
  ASPARTATE AMINOTRANSFERASE: 112.67 u/L
  BLOOD UREA NITROGEN: 18.33 mg/dL
  CARBON DIOXIDE: 19.33 mmol/L
  CHLORIDE: 104 MEQ/L
  CHOLESTEROL: 47.33 mg/dL
  CREATINE PHOSPHOKINASE: 547 u/L
  CREATININE: 0.11 mg/dL
  GLUCOSE: 149.67 mg/dL
  LACTATE DEHYDROGENASE: 794 u/L
  LIPASE: 10 u/L
  PHOSPHORUS: 12 mg/dL
  POTASSIUM: 5.56 MEQ/L
  SODIUM: 142.2 MEQ/L
  TOTAL BILIRUBIN: 0.27 mg/dL
  TOTAL PROTEIN: 5.77 G/DL
  URIC ACID: 1.67 mg/dL
[4]
  ABSOLUTE BASOPHIL: 0 CELLS/uL
  ABSOLUTE EOSINOPHIL: 0 CELLS/uL
  ABSOLUTE LYMPHOCYTE: 8740 CELLS/uL
  ABSOLUTE MONOCYTE: 0 CELLS/uL
  ABSOLUTE SEGMENTED NEUTROPHIL: 2760 CELLS/uL
  BASOPHIL: 0%
  EOSINOPHIL: 0%
  ERYTHROCYTE COUNT: 5.33 x10E6/uL
  HEMATOCRIT: 31.3%
  HEMOGLOBIN: 12.1 G/DL
  LEUKOCYTE COUNT: 11.5 x10E3/uL
  LYMPHOCYTE: 76%
  MEAN CORPUSCULAR HEMOGLOBIN: 22.7 pg
  MEAN CORPUSCULAR HEMOGLOBIN CONCENTRATION: 38.7 G/DL
  MEAN CORPUSCULAR VOLUME: 58.8 fL
  MONOCYTE: 0%
  NEUTROPHIL: 24%
  NUCLEATED RED BLOOD CELLS: 2 /100WBC
  PLATELET COUNT: 1853 x10E3/uL
  ALANINE AMINOTRANSFERASE: 113 u/L
  ALBUMIN: 4.4 G/DL
  ALKALINE PHOSPHATASE: 238 u/L
  ASPARTATE AMINOTRANSFERASE: 86 u/L
  BLOOD UREA NITROGEN: 17 mg/dL
  CARBON DIOXIDE: 22 mmol/L
  CHLORIDE: 102 MEQ/L
  CHOLESTEROL: 58 mg/dL
  CREATINE PHOSPHOKINASE: 287 u/L
  CREATININE: 0.1 mg/dL
  GLUCOSE: 153 mg/dL
  LACTATE DEHYDROGENASE: 188 u/L
  LIPASE: 9 u/L
  PHOSPHORUS: 14.8 mg/dL
  POTASSIUM: 5.92 MEQ/L
  SODIUM: 141.9 MEQ/L
  TOTAL BILIRUBIN: 0.2 mg/dL
  TOTAL PROTEIN: 5.6 G/DL
  URIC ACID: 2.1 mg/dL
